Measurements as given in US20210100777A1, “HEAT SHOCK PROTEIN (HSP) INHIBITION AND MONITORING EFFECTIVENESS THEREOF” (H. LEE MOFFITT CANCER CENTER AND RESEARCH INSTITUTE, INC., priority 2013, published 2021).

Tests used:
HSPs in RPMI-8226 cells = assay: DI-MRM relative quantification of HSPs after 17-DMAG (Example 2); format: cell-based, human; conditions: RPMI-8226, 100 nM
Experimental: Synthesis and DI MRM of Standard Peptides. Standard peptides were synthesized and characterized as described previously (Remily-Wood et al., Proteomics Clin. Appl. 5:383-96 (2011)). An automated chip-based nanoelectrospray ion source, (NanoMate100, Advion BioSciences, Ithaca, N.Y.), was mounted on a triple quadrupole mass spectrometer (TSQ Vantage, Thermo, San Jose, Calif.). […] (SEQ ID NO:17) were diluted to 1 μM in 50% aqueous ACN with 0.1% formic acid. For synthetic peptide infusion, the spray voltage was tuned between 1.5 and 1.9 kV for stable ion signal. The gas pressure was set to 0.3 psi. Data were acquired at 20 ms per transition for 2 minutes using m/z 0.002 scan widths. The quadrupole resolution values were modulated from 0.2 to 0.7.
Standard Protein DI-MRM. As described below, a dilution series of BSA digest was created in 50% aqueous acetonitrile with 0.1% formic acid spiked with five synthetic peptide standards (20 nM). In DI-MRM, the spray voltage was set to 1.6 kV, and the gas pressure was set to 0.3 psi. Peptide selection was performed using Q1=0.4; fragment ion selection was performed using Q3=0.7. Transitions (n=36) were monitored for 20 ms each with scan width set to 0.002; data were acquired for 5 minutes.
Cell Culture, Lysis, and HSP Sample Preparation for Mass Spectrometry. RPMI-8226 and 8226/LR5 cells were maintained as previously described (Bellamy et al., Cancer Res. 51:995-1002 (1991); Remily-Wood et al., Proteomics Clin. Appl. 5:383-96 (2011)). The heat shock protein 90 inhibitor, 17-desmethoxy-17-N,N-dimethylaminoethylamino-geldanamycin (17-DMAG), was dissolved in DMSO (100 μM stock). Based on prior IC50 measurements, the RPMI-8226 cells were treated with 100 nM 17-DMAG for 24 hours, and 8226/LR5 cells were treated with 50 nM 17-DMAG. Cells (n=10^6) were lysed using in aqueous 100 mM ammonium bicarbonate containing 8M urea for protein denaturation. Protein concentrations were measured by Bradford assays; consistent aliquots of total protein (380 ng) were injected for LC-MRM, and the same solutions were used for DI-MRM. Digestion, addition of SIS peptides, and mass spectrometry sample preparation were performed as described for standard proteins.
Calculation of Correction Factors to Account for Interference in DI MRM. […] To evaluate the ability to eliminate these contributions, correction factors were calculated based on LC-MRM data using the following set of equations (Equations 1 and 2): […]

[1] = system: FOXO3a in M229R and 1205LuR cells; assay: Immunofluorescent staining; format: cell-based; conditions: 48 hours; XL888 300 nM, GDC-0941 3 μM
Experimental: Immunofluorescent staining. M229R and 1205LuR cells were seeded at 50% confluency onto glass coverslips in a 12 well plate and allowed to adhere overnight. […] Fixed cells were separately stained by incubating overnight with rabbit anti-BIM or anti-FOXO3a antibodies followed by staining with secondary anti-rabbit AF488. Cells were then mounted onto slides with ProLong Gold Antifade containing DAPI (Invitrogen) and imaged with a Leica confocal microscope equipped with a 40x oil immersion lens.

intratumoral HSP70 = assay: LC-MRM analysis of xenograft samples; format: in vivo, BALB SCID mice; conditions: 15-days of treatment, 100 mg/kg
Experimental: (§1) Liquid chromatography, multiple reaction monitoring mass (LC-MRM) spectrometry (LC MRM) analysis. LC-MRM was performed as described in (Remily-Wood et al., Proteomics Clin. App. 5:383-96 (2011)). Protein expression was determined using the ratio of peak area of the native peptide to corresponding internal standard; normalization of tissue results was performed using GAPDH to control for cellularity (Table 9). Data were then normalized to the pretreatment (cell lines) or vehicle controls (tissue) and plotted to show the changes in expression after drug treatment.
Xenograft experiments. BALB SCID mice (The Jackson Laboratory, Bar Harbor, Me.) were subcutaneously injected with 2.5×10^6 cells per mouse (resuspended in 111 μL L-15 media, 10 mM HEPES, 37.5 μL Matrigel). Tumors were grown to approximately 100 mm^3 prior to dosing. Mice were treated with either 100 mg XL888/kg (n=5) or an equivalent volume of vehicle (10 mM HCl), 3 times per week by oral gavage. Mouse weights and tumor volumes (L×W2/2) were measured 3 times per week. Upon completion of the experiment, vehicle and drug treated tumor biopsies were processed for LC-MRM analysis (as above).

HSP70 isoform 1 (HSP71) = assay: LC-MRM pharmacodynamic assay of HSP90 inhibition in melanoma cell lines; format: cell-based; conditions: 300 nM, 0-48 hours; naïve, intrinsically resistant and acquired resistant cell lines
Experimental: Proteomics Sample Preparation. Proteins were extracted as described for Western Blotting and processed as described in (Remily-Wood et al., Proteomics Clin. App. 5:383-96 (2011)).
as §1

[2] = 24 hrs vs. control, all LC-MRM transitions, interference-corrected
[3] = 24 hrs vs. control, noise corrected, only transitions below 40% interference

CO[C@H]1/C=C\C=C(/C)C(=O)NC2=CC(=O)C(NCCN(C)C)=C(C[C@@H](C)C[C@H](OC)[C@H](O)[C@@H](C)/C=C(\C)[C@@H]1OC(N)=O)C2=O [17-DMAG, 17-Dimethylaminoethylamino-17-demethoxygeldanamycin]
HSP90α Fold Change, DI-MRM (HSPs in RPMI-8226 cells; 24 hrs after treatment vs. control, ALLFVPR y3-y6 (All LC-MRM Transitions)): 1.86 | CDC37 Fold Change, DI-MRM (HSPs in RPMI-8226 cells; [2]): 1.08 | HS90A Fold Change, DI-MRM (HSPs in RPMI-8226 cells; [2]): 1.86 | HS90B Fold Change, DI-MRM (HSPs in RPMI-8226 cells; [2]): 1.46 | HSP7C Fold Change, DI-MRM (HSPs in RPMI-8226 cells; [2]): 1.52 | HSP7E Fold Change, DI-MRM (HSPs in RPMI-8226 cells; [2]): 0.87 | HSP71 Fold Change, DI-MRM (HSPs in RPMI-8226 cells; [2]): 6.10 | HSP74 Fold Change, DI-MRM (HSPs in RPMI-8226 cells; [2]): 1.22 | HSPA5 Fold Change, DI-MRM (HSPs in RPMI-8226 cells; [2]): 3.43 | CDC37 Fold Change, DI-MRM (HSPs in RPMI-8226 cells; [3]): 1.20 | HS90A Fold Change, DI-MRM (HSPs in RPMI-8226 cells; [3]): 1.85 | HS90B Fold Change, DI-MRM (HSPs in RPMI-8226 cells; [3]): 1.46 | HSP7C Fold Change, DI-MRM (HSPs in RPMI-8226 cells; [3]): 1.84 | HSP7E Fold Change, DI-MRM (HSPs in RPMI-8226 cells; [3]): 0.81 | HSP71 Fold Change, DI-MRM (HSPs in RPMI-8226 cells; [3]): 6.10 | HSP74 Fold Change, DI-MRM (HSPs in RPMI-8226 cells; [3]): 1.37 | HSPA5 Fold Change, DI-MRM (HSPs in RPMI-8226 cells; [3]): 2.53 | HSP90α Fold Change, DI-MRM (HSPs in RPMI-8226 cells; 24 hrs vs. control, y3 (Least Interference)): 2.96 | HSP90α Fold Change, DI-MRM (HSPs in RPMI-8226 cells; 24 hrs vs. control, y3-y5 (DI-MRM Interference-Corrected)): 1.85 | HSP90α Fold Change, DI-MRM (HSPs in RPMI-8226 cells; 24 hrs vs. control, y3-y5 (Selected Transitions)): 1.85 | HSP90α Fold Change, DI-MRM (HSPs in RPMI-8226 cells; 24 hrs vs. control, y3-y6 (DI-MRM Interference-Corrected)): 1.87

CC[C@@H](C)Nc1cc(C(=O)N[C@@H]2C[C@H]3CC[C@@H](C2)N3c2ccc(C(=O)C3CC3)cn2)c(C)cc1C(N)=O [XL888, 5-((R)-sec-butylamino)-N1-((1R,3s,5S)-8-(5-(cyclopropanecarbonyl)pyridin-2-yl)-8-azabicyclo[3.2.1]octan-3-yl)-2-methylterephthalamide]
nuclear accumulation of FOXO3a [1]: highly efficient at increasing nuclear accumulation of FOXO3a | increase in intratumoral HSP70 expression compared to controls (intratumoral HSP70): 8.6 fold | expression of HSP70 isoform 1 (HSP71) (HSP70 isoform 1 (HSP71)): robust time-dependent increases
